# Measurements as given in patent publication US20220356176A1, “Kv11.1-3.1 INHIBITING METHODS AND COMPOSITIONS” (The Johns Hopkins University, priority 2019, published 2022).
# Counter-ions that a name gives are not always drawn.
# Target: T1, KCNH2-3.1 (Kv11.1-3.1 containing potassium channel; hERG 3.1) (Homo sapiens, UniProt Q12809)
# T1 construct: expressed in transfected cells; host or cells: U2OS cells transduced with hERG 3.1 BacMam virus
# Assay: KCNH2-3.1 inhibition ion (thallium) flux assay, FluxOR
# Assay type: cell-based
# Conditions: U2OS cells transduced with hERG 3.1 Bacmam virus, 5 minutes compound incubation, read-out: Activity range (IC50)
# From the text: The ability of the presently disclosed compounds to inhibit the activity of the ion channel produced from the KCNH2-3.1 transcript may be determined by methods known to those in the art for measuring ion channel inhibition. One method for measuring ion channel activity uses a thallium flux assay (Titus et al., 2009; FluxOR™ kit from Life Technologies). This assay measures the passage of thallium through the channel as indicated by a thallium sensitive dye loaded into the cell.
# The ability of compounds to inhibit the activity of KCNH2-3.1 was determined by an ion flux assay as described (Titus et al, 2009, which is incorporated herein by reference). U2OS cells were cultured in media containing DMEM, 10% FBS, and Penicillin/Streptomycin. Cells were grown to 90% confluency then washed with PBS and pelleted. Cells were resuspended in DMEM containing 2% FBS and incubated with hERG or hERG 3.1 Bacmam virus for 4 hours at room temperature in the dark. Cells were plated onto clear-bottom PDL coated 1536 well plates and allowed to grow 16-20 hours at 37° C. FluxOr loading buffer containing 10mM Red Dye #40 was added to each well and incubated for 45 minutes. Plates were loaded and analyzed in Hamamatsu FDSS (7000) using a two-addition protocol. In the first addition step of the assay, compounds to be tested and the cell compound mixture were incubated together for 5 minutes before addition of FluxOr stimulus buffer as the second addition step. Channel activity was detected and analyzed via the slope of fluorescence intensities versus the time of first 30 s after compound addition was calculated from the kinetic results. The signal-to-basal ratio was calculated as the slope of DMSO solvent controls in the stimulated group divided by the slope of an unstimulated group. The concentration responses of compound inhibition from the experiments were analyzed with Prism software (GraphPad, San Diego, Calif., USA).
# As the data herein indicate, a broad variety of compounds of formula (I), formula (II), or formula (III) were found effective as KCNH2-3.1 containing potassium channel inhibitors at low concentrations. […] In the Table 1 below, a single plus (+) is associated with an IC50 of from about 2-10 μM; two plus signs (++) is associated with an IC50 from about 500 nM to about 2 μM; and three plus signs (+++) is associated with an IC50 less than about 500 nM.
# T1 sequence (Q12809 1-1063 isoform Q12809-7): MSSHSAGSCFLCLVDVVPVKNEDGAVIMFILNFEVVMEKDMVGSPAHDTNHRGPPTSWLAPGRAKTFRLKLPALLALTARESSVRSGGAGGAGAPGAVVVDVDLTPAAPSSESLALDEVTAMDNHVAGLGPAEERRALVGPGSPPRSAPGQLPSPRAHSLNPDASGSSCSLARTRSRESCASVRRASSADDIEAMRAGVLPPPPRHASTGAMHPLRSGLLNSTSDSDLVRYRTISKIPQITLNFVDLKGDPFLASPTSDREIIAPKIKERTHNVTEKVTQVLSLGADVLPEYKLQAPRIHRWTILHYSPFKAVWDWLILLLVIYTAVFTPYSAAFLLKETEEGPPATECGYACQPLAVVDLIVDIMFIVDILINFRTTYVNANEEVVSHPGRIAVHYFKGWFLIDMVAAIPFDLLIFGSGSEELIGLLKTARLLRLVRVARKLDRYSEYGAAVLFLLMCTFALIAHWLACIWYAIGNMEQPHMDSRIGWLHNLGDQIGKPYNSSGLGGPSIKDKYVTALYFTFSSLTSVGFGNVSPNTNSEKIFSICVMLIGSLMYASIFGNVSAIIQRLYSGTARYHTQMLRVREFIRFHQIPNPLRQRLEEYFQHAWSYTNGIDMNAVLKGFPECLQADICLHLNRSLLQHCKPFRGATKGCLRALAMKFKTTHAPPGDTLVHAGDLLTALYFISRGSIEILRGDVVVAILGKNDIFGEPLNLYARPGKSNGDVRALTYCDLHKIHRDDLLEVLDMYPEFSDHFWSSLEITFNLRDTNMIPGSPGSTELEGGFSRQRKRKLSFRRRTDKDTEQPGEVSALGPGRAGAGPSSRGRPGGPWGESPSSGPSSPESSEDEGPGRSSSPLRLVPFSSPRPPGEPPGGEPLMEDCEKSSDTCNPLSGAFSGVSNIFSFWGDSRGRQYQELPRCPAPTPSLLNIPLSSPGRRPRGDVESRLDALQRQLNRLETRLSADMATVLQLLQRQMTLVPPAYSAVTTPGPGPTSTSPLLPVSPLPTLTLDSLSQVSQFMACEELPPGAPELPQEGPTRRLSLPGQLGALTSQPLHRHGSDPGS
row,Structure (SMILES),IC50 [nM]
1,"O=C(CN1CCCCC1)Nc1ccc(N2CCCCCC2)cc1F [Example 38, N-4-(azepan-1-yl)-2-fluoro-phenyl1-2-(1-piperidyl)acetamide]",2000 to 10000
2,"O=C(CN1C2CCC1CC2)Nc1ccc(N2CCCCCC2)nc1 [Example 26, 2-(7-azabicyclo[2.2.1]heptan-7-yl)-N-[6-(azepan-1-yl)-3-pyridyl]acetamide]",500 to 2000
3,CC1CCCN(CC(=O)Nc2ccc(N3CCCCCC3)cc2)C1 (stereo not shown) [Example 15],2000 to 10000
4,"CC1CC(c2ccccc2)CCN1CC(=O)Nc1ccc(N2CCCCCC2)cc1 (mixture of isomers) [Example 19, N-[4-(azepan-1-yl)phenyl]-2-(2-methyl-4-phenyl-1-piperidyl)acetamide]",500 to 2000
5,"O=C(CN1CCCCC1)Nc1ccc(N2CCCOCC2)cc1 [Example 1, N-[4-(1,4-oxazepan-4-yl)phenyl]-2-(1-piperidyl)acetamide hydrochloride]",2000 to 10000
6,"O=C(CN1CCCCC1)Nc1ccc(N2CCCCCC2)c(F)c1 [Example 36, N-[4-(azepan-1-yl)-3-fluoro-phenyl]-2-(1-piperidyl)acetamide]",< 500
7,"O=C(CN1CCCC(F)C1)Nc1ccc(N2CCCCCC2)cc1 (stereo not shown) [Example 8, N-[4-(azepan-1-yl)phenyl]-2-(3-fluoro-1-piperidyl)acettamide]",500 to 2000
8,"O=C(CN1CCCCC1C(F)(F)F)Nc1ccc(N2CCCCCC2)cc1 (stereo not shown) [Example 9, N-[4-(azepan-1-yl)pheny]-2-[2-(trifluoromethyl)-1-piperidyl]acetamide]",500 to 2000
9,"O=C(CNCc1ccccc1)Nc1ccc(N2CCCCCC2)nc1 [Example 31, N-[6-(azepan-1-yl)-3-pyridyl]-2-(benzylamino)acetamide]",2000 to 10000
10,O=C(CCN1CCCCC1)Nc1ccc(N2CCCCCC2)cc1 [Example 23],2000 to 10000
11,"O=C(CN1CCCC1)Nc1ccc(N2CCCCCC2)cc1 [Example 14, N-[4-(azepan-1-yl)phenyl]-2-pyrrolidin-1-yl-acetamide hydrochloride]",2000 to 10000
12,"O=C(CNc1ccccc1)Nc1ccc(N2CCCCCC2)nc1 [Example 30, 2-anilino-N-[6-(azepan-1-yl)-3-pyridyl]acetamide]",500 to 2000
13,"O=C(CNC1CCCCCC1)Nc1ccc(N2CCCCCC2)nc1 [Example 29, N-[6-(azepan-1-yl)-3-pyridyl]-2-(cycloheptylamino)acetamide]",500 to 2000
14,"O=C(CN1CCCCC1c1ccc(Cl)cc1)Nc1ccc(N2CCCCCC2)cc1 (stereo not shown) [Example 16, N-[4-(azepan-1-yl)phenyl]-2-[2-(4-chlorophenyl)-1-piperidyl]acetamide]",500 to 2000
15,"O=C(CN1CCCC(OCc2ccccc2)C1)Nc1ccc(N2CCCCCC2)cc1 (stereo not shown) [Example 22, N-[4-(azepan-1-yl)phenyl]-2-(3-benzyloxy-1-piperidyl)acetamide]",500 to 2000
16,CN(CC(=O)Nc1ccc(N2CCCCCC2)nc1)C1CCCCC1 [Example 28],2000 to 10000

row,Structure (SMILES),IC50 [nM]
1,"O=C(CNC1CCCCC1)Nc1ccc(N2CCCCCC2)nc1 [Example 27, N-[6-(azepan-1-yl)-3-pyridyl]-2-[cyclohexylamino]acetamide]",2000 to 10000
2,"CC(C)(O)C1CCN(CC(=O)Nc2ccc(N3CCCCCC3)cc2)CC1 [Example 12, N-[4-(azepan-1-yl)phenyl]-2-[4-(1-hydroxy-1-methyl-ethyl)-1-piperidyl]acetamide]",2000 to 10000
3,"O=C(CN1CCCC(c2cccc(Cl)c2)C1)Nc1ccc(N2CCCCCC2)cc1 (stereo not shown) [Example 17, N-[4-(azepan-1-yl)phenyl]-2-[3-(3-chlorophenyl)-1-piperidyl]acetamide]",< 500
4,"N#Cc1cccc(C2CCN(CC(=O)Nc3ccc(N4CCCCCC4)cc3)CC2)c1 [Example 18, N-[4-(azepan-1-yl)phenyl]-2-[4-(3-cyanophenyl)-1-piperidyl]acetamide]",< 500
5,"O=C(CN1CCCCC1)Nc1ccc(N2CCCCCC2)nc1 [Example 25, N-[6-(azepan-1-yl)-3-pyridyl]-2-(1-piperidyl)acetamide]",500 to 2000
6,"O=C(CN1CCCCC1CO)Nc1ccc(N2CCCCCC2)cc1 (stereo not shown) [Example 11, N-[4-(azepan-1-yl)phenyl]-2-[2-(hydroxymethyl)-1-piperidyl]acetamide]",2000 to 10000
7,"O=C(CN1CC2CCC(C2)C1)Nc1ccc(N2CCCCCC2)nc1 [Example 32, 2-(3-azabicyclo[3.2.1]octan-3-yl)-N-[6-(azepan-1-yl)-3-pyridyl]acetamide]",< 500
8,"O=C(CN1CCCCC1)Nc1cnc(N2CCCCCC2)nc1 [Example 35, N-[2-(azepan-1-yl)pyrimidin-5-yl]-2-(1-piperidyl)acetamide]",500 to 2000
9,"CC1CCN(c2ccc(NC(=O)CN3CC4CCC3CC4)cn2)CC1 [Example 3, 2-(8-azabicyclo[3.2.1]octan-8-yl)-N-16-(4-methyl-1-piperidyl)-3-pyridyljacetamide]",500 to 2000
10,"O=C(CN1CCC(c2ccc(F)cc2)C1)Nc1ccc(N2CCCCCC2)cc1 (stereo not shown) [Example 20, N-[4-(azepan-1-yl)phenyl]-2-[3-(4-fluorophenyl)pyrrolidin-1-yl]acetamide]",500 to 2000
11,"O=C(CN1CCC(CO)CC1)Nc1ccc(N2CCCCCC2)cc1 [Example 10, N-[4-(azepan-1-yl)phenyl]-2-[4-(hydroxymethyl)-1-piperidyl]acetamide]",2000 to 10000
12,O=C(CN1CCCCC1)Nc1ccc(N2CCCCCC2)cn1 [Example 34],2000 to 10000
13,"O=C(CN1CCCOCC1)Nc1ccc(N2CCCCCC2)cc1 [Example 7, N-[4-(azepan-1-yl)phenyl]-2-(1,4-oxazepan-4-yl)acetamide hydrochloride]",2000 to 10000
14,"O=C(CN1CCC(O)(c2ccc(Cl)cc2)CC1)Nc1ccc(N2CCCCCC2)cc1 [Example 13, N-[4-(azepan-1-yl)phenyl]-2-[4-(4-chlorophenyl)-4-hydroxy-1-piperidyl]acetamide]",< 500
15,"CC(C(=O)Nc1ccc(N2CCCCCC2)cc1)N1CCCCC1 (stereo not shown) [Example 24, N-[4-(azepan-1-yl)phenyl]-2-(1-piperidyl)propanamide]",2000 to 10000
